From US4753953A, “Pyridonecarboxylic acid derivatives and antibacterial pharmaceutical compositions thereof” (priority 1985, dated 1988)
Converted amounts (≈) assume the structure as drawn. Like-named read-outs stand apart in the source and are kept apart here.

Columns and labels:
[1] = tested on: Acinetobacter anitratus IID 876; test: MIC, in vitro antibacterial activity (standard strains); assay type: cell-based; details: Acinetobacter calcoaceticus, IID876; 10^6 cells/ml; Gram -; read-out: MIC
F. necrophorum S-45 = test: as above; assay type: cell-based; details: Fusobacterium necrophorum, S45; 10^6 cells/ml; Gram -; read-out: MIC
S. epidermidis IID 866 = test: as above; assay type: cell-based; details: Staphylococcus epidermidis, IID866; 10^6 cells/ml; Gram +; read-out: MIC
E. limosum KYA 8486 = test: as above; assay type: cell-based; details: Eubacterium limosum, KYA8486; 10^6 cells/ml; Gram +; read-out: MIC
B. fragilis 25285 = test: as above; assay type: cell-based, Bacteroides fragilis; details: Bacteroides fragilis, 25285; 10^6 cells/ml; Gram -; read-out: MIC
[2] = tested on: Peptococcus magnus KY 017; test: as above; assay type: cell-based; details: Finegoldia magna, KY017; 10^6 cells/ml; Gram +; read-out: MIC
[3] = tested on: Alcaligenes faecalis 0114002; test: as above; assay type: cell-based; details: Alcaligenes faecalis, 0114002; 10^6 cells/ml; Gram -; read-out: MIC
[4] = tested on: Proteus vulgaris IFO 3167; test: as above; assay type: cell-based; details: Proteus vulgaris, IFO3167; 10^6 cells/ml; Gram -; read-out: MIC
S. pneumoniae IID 552 = test: as above; assay type: cell-based; details: Streptococcus pneumoniae, IID552; 10^6 cells/ml; Gram +; read-out: MIC
[5] = tested on: Bacteroides fragilis GM 7000; test: as above; assay type: cell-based; details: Bacteroides fragilis, GM7000; 10^6 cells/ml; Gram -; read-out: MIC
K. pneumoniae 1-220S = test: as above; assay type: cell-based, Klebsiella pneumoniae; details: Klebsiella pneumoniae, 1220S; 10^6 cells/ml; Gram -; read-out: MIC
E. coli ML 4707 = test: as above; assay type: cell-based, Escherichia coli; details: Escherichia coli
C. ramosum = test: as above; assay type: cell-based; details: Thomasclavelia ramosa; 10^6 cells/ml; Gram +; read-out: MIC
S. pyogenes IID 692 = test: as above; assay type: cell-based, Streptococcus pyogenes; details: Streptococcus pyogenes, IID692; 10^6 cells/ml; Gram +; read-out: MIC
[6] = tested on: Enterobacter cloacae IID 977; test: as above; assay type: cell-based; details: Enterobacter cloacae, IID977; 10^6 cells/ml; Gram -; read-out: MIC
Pst. micros UPI 5464-1 = test: as above; assay type: cell-based; details: Parvimonas micra, UPI54641; 10^6 cells/ml; Gram +; read-out: MIC
[7] = tested on: Propionibacterium acens 11828; test: as above; assay type: cell-based; details: Propionibacterium, 11828; 10^6 cells/ml; Gram +; read-out: MIC
[8] = tested on: Staphylococcus aureus 209 P; test: as above; assay type: cell-based; details: Staphylococcus aureus, 209P; 10^6 cells/ml; Gram +; read-out: MIC
[9] = tested on: Escherichia coli NIHJ JC-2; test: as above; assay type: cell-based; details: Escherichia coli, NIHJJC2
[10] = tested on: Veillonella parvula KYA 10790; test: as above; assay type: cell-based; details: Veillonella parvula, KYA10790; 10^6 cells/ml; Gram -; read-out: MIC
Shigella sonnei IID 969 = test: as above; assay type: cell-based; details: Shigella sonnei, IID969; 10^6 cells/ml; Gram -; read-out: MIC
Method: Minimal inhibitory concentrations (MICs) were determined in accordance with the method recommended by Japan Society of Chemotherapy.

B. fragilis 0558 = test: as above; assay type: cell-based, Bacteroides fragilis; details: Bacteroides fragilis, 0558; 10^6 cells/ml; Gram -; read-out: MIC
S. aureus Smith = test: as above; assay type: cell-based, Staphylococcus aureus; details: Staphylococcus aureus; 10^6 cells/ml; Gram +; read-out: MIC
[11] = tested on: Yersinia enterocolitica IID 981; test: as above; assay type: cell-based; details: Yersinia enterocolitica, IID981; 10^6 cells/ml; Gram -; read-out: MIC
[12] = tested on: Pseudomonas aeruginosa V-1; test: as above; assay type: cell-based; details: Pseudomonas aeruginosa, V1; 10^6 cells/ml; Gram -; read-out: MIC
C. perfringens KYA 13123 = test: microbe, parasite or virus in culture; assay type: cell-based; details: Clostridium perfringens, KYA13123
P. maltophilia GIFU 2491 = test: MIC, in vitro antibacterial activity (standard strains); assay type: cell-based; details: Stenotrophomonas maltophilia, GIFU2491; 10^6 cells/ml; Gram -; read-out: MIC
F. varium KYA 8501 = test: as above; assay type: cell-based; details: Fusobacterium varium, KYA8501; 10^6 cells/ml; Gram -; read-out: MIC
[13] = tested on: Klebsiella pneumoniae KY(GN)6445; test: as above; assay type: cell-based; details: Klebsiella pneumoniae; 10^6 cells/ml; Gram -; read-out: MIC
[14] = tested on: Streptococcus pyogenes (S-8); test: as above; assay type: cell-based; details: Streptococcus pyogenes; 10^6 cells/ml; Gram +; read-out: MIC
P. mirabilis IID 994 = test: as above; assay type: cell-based; details: Proteus mirabilis, IID994; 10^6 cells/ml; Gram -; read-out: MIC
[15] = tested on: Clostridium difficile I-E; test: as above; assay type: cell-based; details: Clostridioides difficile; 10^6 cells/ml; Gram +
[16] = ML4707, 10^6 cells/ml, Gram -, Table 1, read-out: MIC
[17] = 10^6 cells/ml, Gram -, read-out: MIC
[18] = ML4707, Table 2, strain of the mouse infection, read-out: MIC

SMILES	MIC [1]	MIC (F. necrophorum S-45)	MIC (S. epidermidis IID 866)	MIC (B. fragilis 25285)	MIC [2]	MIC [3]	MIC [4]	MIC [5]	MIC (K. pneumoniae 1-220S)	MIC (C. ramosum)	MIC [6]	MIC (Pst. micros UPI 5464-1)	MIC [7]	MIC [8]	MIC [10]	MIC (Shigella sonnei IID 969)	MIC (B. fragilis 0558)	MIC (S. aureus Smith)	MIC [11]	MIC [12]	other results
CC1CN(c2c(F)cc3c(=O)c(C(=O)O)cn(C4CC4)c3c2Cl)CC1N (stereo not drawn) [Example 7, 7-(3-Amino-4-methyl-1-pyrrolidinyl)-8-chloro-1-cyclopropyl-6-fluoro-1,4-dihydro-4-oxo-3-quinolinecarboxylic acid]	0.025 µg/mL (≈ 0.0658 µM)	0.2 µg/mL (≈ 0.527 µM)	0.05 µg/mL (≈ 0.132 µM)	0.05 µg/mL (≈ 0.132 µM)	0.05 µg/mL (≈ 0.132 µM)	0.1 µg/mL (≈ 0.263 µM)	0.0125 µg/mL (≈ 0.0329 µM)	0.1 µg/mL (≈ 0.263 µM)	0.05 µg/mL (≈ 0.132 µM)	0.78 µg/mL (≈ 2.05 µM)	0.05 µg/mL (≈ 0.132 µM)	0.1 µg/mL (≈ 0.263 µM)	0.78 µg/mL (≈ 2.05 µM)	0.025 µg/mL (≈ 0.0658 µM)	0.1 µg/mL (≈ 0.263 µM)	0.0063 µg/mL (≈ 0.0166 µM)	0.05 µg/mL (≈ 0.132 µM)	0.05 µg/mL (≈ 0.132 µM)	0.025 µg/mL (≈ 0.0658 µM)	0.2 µg/mL (≈ 0.527 µM)	MIC (E. limosum KYA 8486): 0.2 µg/mL (≈ 0.527 µM); MIC (S. pneumoniae IID 552): 0.1 µg/mL (≈ 0.263 µM); MIC (E. coli ML 4707; [16]): 0.0125 µg/mL (≈ 0.0329 µM); MIC (S. pyogenes IID 692): 0.1 µg/mL (≈ 0.263 µM); MIC [9, 17]: 0.0063 µg/mL (≈ 0.0166 µM); MIC (C. perfringens KYA 13123): 0.1 µg/mL (≈ 0.263 µM); MIC (P. maltophilia GIFU 2491): 0.05 µg/mL (≈ 0.132 µM); MIC (F. varium KYA 8501): 0.78 µg/mL (≈ 2.05 µM); MIC [13]: 0.0125 µg/mL (≈ 0.0329 µM); MIC [14]: 0.1 µg/mL (≈ 0.263 µM); MIC (P. mirabilis IID 994): 0.025 µg/mL (≈ 0.0658 µM)
CC1CN(c2c(F)cc3c(=O)c(C(=O)O)cn(C4CC4)c3c2F)CC1N.Cl (stereo not drawn) [Example 11, 7-(3-Amino-4-methyl-1-pyrrolidinyl)-1-cyclopropyl-6,8-difluoro-1,4-dihydro-4-oxo-3-quinolinecarboxylic acid hydrochloride]	0.05 µg/mL	0.39 µg/mL	0.1 µg/mL	0.39 µg/mL	0.2 µg/mL	0.2 µg/mL	0.025 µg/mL	0.78 µg/mL	0.05 µg/mL	1.56 µg/mL	0.05 µg/mL	0.39 µg/mL	3.13 µg/mL	0.05 µg/mL	0.39 µg/mL	0.025 µg/mL	0.39 µg/mL	0.05 µg/mL	0.05 µg/mL	0.39 µg/mL	MIC (E. limosum KYA 8486): 0.78 µg/mL; MIC (E. coli ML 4707; ML4707): 0.0125 µg/mL; MIC (E. coli ML 4707; [18]): 0.025 µg/mL; MIC [9]: 0.0125 µg/mL; MIC (C. perfringens KYA 13123): 0.39 µg/mL; MIC (P. maltophilia GIFU 2491): 0.1 µg/mL; MIC (F. varium KYA 8501): 1.56 µg/mL; MIC [13]: 0.025 µg/mL; MIC (P. mirabilis IID 994): 0.05 µg/mL
C[C@H]1CN(c2c(F)cc3c(=O)c(C(=O)O)cn(C4CC4)c3c2Cl)C[C@H]1N (relative stereo) [Example 16, 7-(cis-3-Amino-4-methyl-1-pyrrolidinyl)-8-chloro-1-cyclopropyl-6-fluoro-1,4-dihydro-4-oxo-3-quinolinecarboxylic acid]	0.025 µg/mL (≈ 0.0658 µM)	0.05 µg/mL (≈ 0.132 µM)	0.05 µg/mL (≈ 0.132 µM)	0.05 µg/mL (≈ 0.132 µM)	0.05 µg/mL (≈ 0.132 µM)	0.1 µg/mL (≈ 0.263 µM)	0.0125 µg/mL (≈ 0.0329 µM)	0.05 µg/mL (≈ 0.132 µM)	0.05 µg/mL (≈ 0.132 µM)	0.39 µg/mL (≈ 1.03 µM)	0.05 µg/mL (≈ 0.132 µM)	0.1 µg/mL (≈ 0.263 µM)	0.78 µg/mL (≈ 2.05 µM)	0.05 µg/mL (≈ 0.132 µM)	0.1 µg/mL (≈ 0.263 µM)	0.0063 µg/mL (≈ 0.0166 µM)	0.05 µg/mL (≈ 0.132 µM)	0.025 µg/mL (≈ 0.0658 µM)	0.05 µg/mL (≈ 0.132 µM)	0.1 µg/mL (≈ 0.263 µM)	MIC [15]: 0.39 µg/mL; MIC (S. pneumoniae IID 552): 0.1 µg/mL (≈ 0.263 µM); MIC (E. coli ML 4707; [16]): 0.0063 µg/mL (≈ 0.0166 µM); MIC (E. coli ML 4707; [18]): 0.0125 µg/mL (≈ 0.0329 µM); MIC (S. pyogenes IID 692): 0.1 µg/mL (≈ 0.263 µM); MIC [9, 17]: 0.0063 µg/mL (≈ 0.0166 µM); MIC (C. perfringens KYA 13123): 0.05 µg/mL (≈ 0.132 µM); MIC (P. maltophilia GIFU 2491): 0.05 µg/mL (≈ 0.132 µM); MIC (F. varium KYA 8501): 0.78 µg/mL (≈ 2.05 µM); MIC [13]: 0.025 µg/mL (≈ 0.0658 µM); MIC [14]: 0.1 µg/mL (≈ 0.263 µM); MIC (P. mirabilis IID 994): 0.025 µg/mL (≈ 0.0658 µM)
CC1CN(c2c(F)cc3c(=O)c(C(=O)O)cn(C4CC4)c3c2Cl)CC1CN (stereo not drawn) [Example 1, 7-(3-Aminomethyl-4-methyl-1-pyrrolidinyl)-8-chloro-1-cyclopropyl-6-fluoro-1,4-dihydro-4-oxo-3-quinolinecarboxylic acid]	0.05 µg/mL (≈ 0.127 µM)	0.1 µg/mL (≈ 0.254 µM)	0.0125 µg/mL (≈ 0.0317 µM)	≤ 0.05 µg/mL	≤ 0.05 µg/mL	0.2 µg/mL (≈ 0.508 µM)	0.05 µg/mL (≈ 0.127 µM)	≤ 0.1 µg/mL	0.05 µg/mL (≈ 0.127 µM)	0.2 µg/mL (≈ 0.508 µM)	0.05 µg/mL (≈ 0.127 µM)	0.39 µg/mL (≈ 0.99 µM)	0.2 µg/mL (≈ 0.508 µM)	0.0125 µg/mL (≈ 0.0317 µM)	0.1 µg/mL (≈ 0.254 µM)	0.025 µg/mL (≈ 0.0635 µM)	≤ 0.05 µg/mL	0.0125 µg/mL (≈ 0.0317 µM)	0.05 µg/mL (≈ 0.127 µM)	0.1 µg/mL (≈ 0.254 µM)	MIC (E. limosum KYA 8486): 0.39 µg/mL (≈ 0.99 µM); MIC (S. pneumoniae IID 552): 0.0125 µg/mL (≈ 0.0317 µM); MIC (E. coli ML 4707; [16]): 0.025 µg/mL (≈ 0.0635 µM); MIC (S. pyogenes IID 692): 0.025 µg/mL (≈ 0.0635 µM); MIC [9, 17]: 0.025 µg/mL (≈ 0.0635 µM); MIC (C. perfringens KYA 13123): ≤ 0.05 µg/mL; MIC (P. maltophilia GIFU 2491): 0.1 µg/mL (≈ 0.254 µM); MIC (F. varium KYA 8501): 0.39 µg/mL (≈ 0.99 µM); MIC [13]: 0.05 µg/mL (≈ 0.127 µM); MIC [14]: 0.0125 µg/mL (≈ 0.0317 µM); MIC (P. mirabilis IID 994): 0.05 µg/mL (≈ 0.127 µM)
